85 molecules from PubChem BioAssay AID1645864 (Buhrlage Lab, Dana-Farber Cancer Institute and Novartis …, 2021) can be followed below.

Molecules are shown by their SMILES. Calls of active or inactive are those of the source.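 Rule for the calls: active = maximal inhibition of USP17 at or above 30% in the confirmation dose-response, a value not among the printed readouts; inactive = the rest.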 A value given as a limit tells only on which side of the number the result lay.

For the experiment, the target named is Ubiquitin carboxyl-terminal hydrolase 17-like protein 5 (Homo sapiens) (UniProt A8MUK1). Description: ubiquitin-specific protease 17 inhibitors, concentration series, biochemical, verification of primary actives (AID 1645864). As to conditions: purified USP17, ubiquitin-rhodamine cleavage fluorescence, 3 h.
Sequence of Ubiquitin carboxyl-terminal hydrolase 17-like protein 5 (Homo sapiens) (A8MUK1 whole entry, looked up): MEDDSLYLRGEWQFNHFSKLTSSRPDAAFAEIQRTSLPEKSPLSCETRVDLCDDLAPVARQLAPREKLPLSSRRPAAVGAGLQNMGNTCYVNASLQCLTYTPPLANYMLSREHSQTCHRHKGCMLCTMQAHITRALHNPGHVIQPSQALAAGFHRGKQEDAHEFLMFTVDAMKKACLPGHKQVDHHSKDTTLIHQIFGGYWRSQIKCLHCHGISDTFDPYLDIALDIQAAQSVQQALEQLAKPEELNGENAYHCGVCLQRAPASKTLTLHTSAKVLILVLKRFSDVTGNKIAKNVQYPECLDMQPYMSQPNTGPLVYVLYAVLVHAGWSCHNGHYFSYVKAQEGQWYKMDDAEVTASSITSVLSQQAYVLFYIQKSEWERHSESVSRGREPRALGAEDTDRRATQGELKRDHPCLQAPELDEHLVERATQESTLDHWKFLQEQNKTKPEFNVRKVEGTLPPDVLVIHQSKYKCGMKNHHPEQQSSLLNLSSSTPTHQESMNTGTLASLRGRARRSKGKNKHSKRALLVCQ
With `Cc1nc2cc(NC(=O)C3CN(C(=O)c4cnccn4)C3)ccc2s1`, the IC50 is > 50 µM (inactive).
Turning to `Cc1cc(O)c(=O)cc2c1C[C@H]1CC(C)(C)/C=C/C[C@@]3(C)Oc4cc(=O)c(O)cc(C)c4C[C@@H]3C[C@H](O)[C@]1(C)O2`, the IC50 was > 50 µM (inactive).
For `Cc1nc(-c2ccc(C(=O)NCc3ccc(F)cc3)cc2)cs1`, the IC50 is 48.1 µM.
With `Cn1cc(NC(=O)Nc2cccc3ccccc23)c2ccccc21`, the IC50 is 32.7 µM.
With `Cn1c(=O)c2cc(C(=O)Nc3ccc(F)cc3)cnc2n(C)c1=O`, the IC50 was 22.9 µM.
The same measure for `CCc1ccc(-n2nc(C)c3c2NC(=O)CC3C(=O)c2ccc3c(c2)OCCO3)cc1` (stereo not given): 27.5 µM; for `CCn1cc(NC(=O)CN2CCC3(CC=CCOC3)CC2)c(C)n1`: > 50 µM (inactive).
`O=C(Cc1nnc2c(-c3nc(C4CC4)no3)cccn12)Nc1ccccc1`: the IC50 is 20.1 µM.
As to `Cc1cc(C)c2cc(CN(CCc3ccccc3)C(=O)Nc3ccccc3)c(=O)[nH]c2c1`, the 50% inhibitory concentration (IC50) was 43.5 µM.
The same measure for `COCCNC(=O)Cn1c(=O)n(Cc2ccccc2)c(=O)c2c3c(sc21)CCC3`: 33.5 µM; for `O=c1ncn(Cc2ccc3c(c2)OCO3)cc1-c1ncc(C(F)(F)F)cc1Cl`: 43.9 µM; for `Cc1ccc(-c2nc(NC(=O)Nc3ccc(Cl)cc3)sc2C)cc1`: 19.6 µM.
Regarding `O=C(Cn1c(=O)n(CCCC(=O)N2CC=C(c3ccccc3)CC2)c(=O)c2ccccc21)NCCC1=CCCCC1`, the IC50 is 35 µM.
In the case of `COc1cnc(-c2ccccn2)nc1Sc1ccc(C)cc1`, the IC50 is > 50 µM (inactive).
Consider `Nc1c(-c2ccc(Cl)cc2)cnc2nc(Sc3ncc(C(F)(F)F)cc3Cl)nn12`, for which the IC50 was > 50 µM (inactive).
`COc1ccc(C(=O)CSc2nnc(-c3cccnc3)n2-c2ccccc2)cc1`: the IC50 was > 50 µM (inactive).
Regarding `CC(C)N1CC2CN(Cc3ccc(Cl)cc3)CCN2Cc2ccccc21` (stereo not given), the IC50 is > 50 µM (inactive).
Take `CCOc1cc(N2CCOCC2)c(OCC)cc1NC(=O)c1cc(-c2ccncc2)nc2ccccc12`: the half-inhibitory concentration (IC50) was 10.1 µM.
As to `COCCn1c(=O)[nH]c2cc(C(=O)NCCNc3ccc([N+](=O)[O-])cc3C#N)ccc2c1=O`, the concentration for half-maximal inhibition (IC50) is 3.57 µM.
Take `COc1ccc(NC(=O)CC(=O)c2ccc([N+](=O)[O-])cc2)cc1S(=O)(=O)Nc1ccc(Cl)cc1`: the half-maximal inhibitory concentration (IC50) is 24.5 µM.
As for `COc1ccc(-n2nnc(C(=O)Nc3ccccc3)c2N)cc1`, the figure is 26.8 µM.
For the molecule `COc1ccc(CNC(=O)CSc2nc3nc(C)ccc3o2)cc1`, the half-inhibitory concentration (IC50) was 25 µM.
As for `Cn1cc(-c2noc(Cc3cccc(C(F)(F)F)c3)n2)ccc1=O`, the IC50 was > 50 µM (inactive).
Regarding `CCCCC/C=C/C=C/C(=O)OC1C(O)CC(c2ccc3c(c2O)C(=O)c2c(O)cc4cc(C)cc(O)c4c2C3=O)OC1C` (stereo not given), the IC50 is 0.394 µM.
Take `O=[N+]([O-])c1ccc(NCc2ccc(-c3cccs3)s2)nc1`: the 50% inhibitory concentration (IC50) was 39.1 µM.
With `O=C(NCCCN1CCc2ccccc2C1)c1cc2c(s1)CS(=O)(=O)C2`, the IC50 is > 5 µM (inactive).
As for `O=c1[nH]c(-c2ccccn2)nc2c1CCN(Cc1cnn(-c3ccccc3)c1)C2`, the figure is > 50 µM (inactive); as for `CC(=O)C1=C(O)[C@]2(O)C(=O)c3c(c(C)c4ccc(C)c(O)c4c3O)C[C@H]2[C@@H](N)C1=O`, 1.14 µM; as for `O=C(Nc1ccc2c(c1)OCCO2)c1cccc2nc3ccccc3nc12`, 2.51 µM.
Turning to `CC[C@H](C)C[C@H]1CC[C@](O)([C@](C)(O)C(=O)N[C@@H]2C(=O)N3NCCC[C@@H]3C(=O)N(O)[C@@H](C)C(=O)NCC(=O)N3NCCC[C@H]3C(=O)N(O)[C@H](C)C(=O)O[C@H]2C(C)C)O[C@@H]1C`, the IC50 was 13.6 µM.
Consider `Cc1ccc(NCc2cc3c(C(C)(C)C)nn(-c4ccc(Cl)cc4)c3[nH]c2=O)cc1`, for which the half-inhibitory concentration (IC50) is 15.7 µM.
As to `COc1ccc(Nc2nc3c(S(=O)(=O)c4ccc(C)cc4)nnn3c3ccsc23)c(OC)c1`, the IC50 was 2.62 µM.
The same measure for `COc1ccccc1NC(=O)c1cc(-c2ccccn2)nc2ccccc12`: 9.53 µM; for `O=C(CCc1nnc2n(Cc3ccc(F)cc3)c(=O)c3ccccc3n12)N1CCN(c2ccccn2)CC1`: > 50 µM (inactive).
Regarding `Cc1ccc2nc(NC(=O)CSc3nnc(-c4ccncc4)n3C3CC3)sc2c1`, the half-inhibitory concentration (IC50) is 3.82 µM.
For `O=C(Nc1ccc(-c2cn3ccsc3n2)cc1)c1ccc(Cl)c([N+](=O)[O-])c1`, the IC50 is 1.17 µM.
In the case of `CCn1c(=O)c(=O)[nH]c2cc(C(=O)Nc3cccc(-c4csc(C)n4)c3)ccc21`, the IC50 was 26.9 µM.
Turning to `COc1ccccc1NC(=O)Cn1cc(C(=O)c2ccc(C)cc2)c(=O)c2cc(Cl)ccc21`, the IC50 is 16.6 µM.
For `COc1ccc(NC(=O)COc2ccc3ccc(=O)oc3c2)cc1`, the half-inhibitory concentration (IC50) is 33.5 µM.
On to `Cc1ccc(NC(=O)Cc2nnc3c(-c4nc(C5CC5)no4)cccn23)cc1`, for which the IC50 was 4.85 µM.
On to `COc1ccc(CN(C(=O)c2cc(-c3ccc(C)cc3)on2)C2CCS(=O)(=O)C2)cc1` (stereo not given), for which the IC50 was 17.3 µM.
As for `O=C(Cn1cnc(-c2noc(-c3ccncc3)n2)c1)N1CCN(c2ccccc2F)CC1`, the figure is > 50 µM (inactive); as for `COc1cccc(CNC(=O)c2ccc3c(c2)NC(=O)C2CCCN32)c1OC` (stereo not given), > 50 µM (inactive).
On to `O=C(CN1C(=O)C2CCCC2=Nc2ccccc21)Nc1ccc(F)cc1F` (stereo not given), for which the IC50 is 32.2 µM.
`Cc1cccc(NC(=O)Nc2nnc(CC(=O)NCc3ccccc3)s2)c1`: the IC50 was 10.7 µM.
Regarding `Cc1ccc(C)c(S(=O)(=O)N2CCN(c3ccc4nnc(-c5ccco5)n4n3)CC2)c1`, the IC50 was 22.6 µM.
`CCOc1ccc(NC(=O)COc2cccc(-n3cnnn3)c2)cc1`: the IC50 is > 50 µM (inactive).
As for `Cc1cc(O)c2c3c(c(O)cc2c1)C(=O)c1c(O)cccc1C3=O`, the IC50 was 0.407 µM.
For `Cn1c(-c2nnc(SCC(=O)NCCc3ccccc3)o2)cc2ccccc21`, the IC50 was 8.23 µM.
The same measure for `CCCC(=O)Nc1ccc(SCc2nnc(-c3ccccc3)o2)cc1`: > 50 µM (inactive); for `CCOC(=O)c1cnn(-c2ccc(C(=O)Nc3ccc(C)c(Cl)c3)cc2)c1N`: 2.35 µM.
Regarding `COc1ccc(Nc2nc(C(=O)NCc3ccc4c(c3)OCO4)cc3occc23)cc1`, the IC50 was 10.7 µM.
The same measure for `Cc1nn(CC(=O)NCc2ccccc2F)c2ccccc12`: 47 µM; for `COCCCNC(=O)Cn1c(=O)n(Cc2ccc(C(=O)NCc3ccccc3OC)cc2)c(=O)c2ccccc21`: > 50 µM (inactive).
Consider `O=C(Cc1noc2ccccc12)NCC(=O)Nc1ccc(Cl)cc1`, for which the 50% inhibitory concentration (IC50) was 18.1 µM.
With `CC(C)NS(=O)(=O)c1cccc2c(NC(=O)C(Cc3ccccc3)NC(=O)c3ccccc3)cccc12` (stereo not given), the IC50 is > 50 µM (inactive).
As for `CCn1cnc2c1c(=O)n(CC(=O)NCc1ccccc1Cl)c(=O)n2Cc1ccccc1`, the IC50 was > 50 µM (inactive).
As for `COc1ccc(/C=C\c2nccc3c2[nH]c2ccccc23)cc1`, the IC50 was > 50 µM (inactive).
The same measure for `COc1cccc(CCNC(=O)CCn2c(=O)c(C)nc3cc(C)c(C)cc32)c1`: > 50 µM (inactive); for `CCc1nc(-c2cc(C(=O)N3CCOCC3)c3ccccn23)cs1`: > 50 µM (inactive).
As for `O=C(Nc1ccccc1)c1ccc2c(c1)CC(c1ccccc1)OC2=O` (stereo not given), the figure is 16 µM; as for `Cc1ccc(-c2cnc(C3CC3)o2)cc1S(=O)(=O)Nc1ccc(F)c(Cl)c1`, 38.1 µM; as for `O=C(Cn1cncc(-c2nc(-c3ccccc3)cs2)c1=O)NC1CCCC1`, 39.5 µM.
Turning to `COc1cccc(NC(=O)C2CCN(C(=O)c3cc(-c4cccnc4)n[nH]3)CC2)c1`, the IC50 is > 50 µM (inactive).
Regarding `O=c1[nH]c(C2CCN(S(=O)(=O)c3ccc(S(=O)(=O)NC4CCCCC4)cc3)CC2)nc2c1nnn2Cc1c(Cl)cccc1Cl`, the IC50 is 9.15 µM.
As to `COCCCn1c(C(=O)NCCc2ccccc2)cc2c(=O)n3cccc(C)c3nc21`, the concentration for half-maximal inhibition (IC50) was 28.5 µM.
With `COc1ccc(-c2cc(C(=O)NC3CCCCCC3)[nH]n2)cc1S(=O)(=O)N(C)C`, the IC50 was 44.5 µM.
For `O=C(Nc1ccc(SCc2nnc(-c3ccccc3)o2)cc1)C1CC1`, the IC50 is > 50 µM (inactive).
Consider `CC1CCc2c(sc3ncnc(NC4CCN(CC(N)=O)CC4)c23)C1` (stereo not given), for which the IC50 was > 50 µM (inactive).
For `N#C/C(=C\c1ccc(-c2cc(Cl)ccc2Cl)o1)c1nnc2n1CCCCC2`, the IC50 is > 50 µM (inactive).
The same measure for `O=C(COc1cccc(C(=O)NCc2ccccc2)c1)Nc1ccc(Oc2ccccc2)cc1`: 34.5 µM; for `Cc1c(CC(=O)Nc2nn[nH]n2)c(=O)oc2cc3c(cc12)CCC1(CCCCC1)O3`: > 50 µM (inactive); for `COc1ccc(CC(NC(C)=O)C(=O)NC2CCN(c3c(Cc4ccccc4)c(C)nc4ncnn34)CC2)cc1OC` (stereo not given): > 50 µM (inactive).
Consider `CCCc1nc2sc3c(N(CC)CC)ncnc3c2c2c1CCC2`, for which the IC50 is > 50 µM (inactive).
As for `Cc1ccc2c(c1)N(C)C(=O)c1cc(NC(=O)c3ccc(F)cc3)ccc1O2`, the half-inhibitory concentration (IC50) is 2.03 µM.
`Cc1cc(SCc2ncon2)c(C)cc1Cl`: the IC50 is > 50 µM (inactive).
As for `CCOc1ccc(CCNC(=O)CCC(=O)Nc2ccc3nc(N4CCN(C)CC4)cc(C)c3c2)cc1OCC`, the figure is > 50 µM (inactive); as for `Cc1ccc2cccc(OCc3nnc(SCC(=O)c4ccc(Cl)cc4)n3C)c2n1`, 2.65 µM; as for `CC1CC(=O)c2c(cc3c(-c4c(O)cc(O)c5c(O)c6c(cc45)OC(C)CC6=O)c(O)cc(O)c3c2O)O1` (stereo not given), 0.486 µM.
Turning to `O=C(Nc1cc(-c2cccnc2)no1)c1ccc(F)c(F)c1`, the concentration for half-maximal inhibition (IC50) was 19.3 µM.
Consider `O=C(c1ccco1)N1CCCC2(C1)Nc1cccnc1NC2=NC1CCCC1` (stereo not given), for which the IC50 was > 50 µM (inactive).
As for `O=C1CC(C(=O)Nc2ccc(F)cc2)n2nc(SCc3ccccc3)nc2N1` (stereo not given), the IC50 is 38.3 µM.
The same measure for `Cc1cccc(-n2nc(C)c3c2NC(=O)CC3C(=O)c2cc3ccccc3o2)c1` (stereo not given): 34.1 µM; for `COc1cnc(CSc2ncccn2)cc1OCC(=O)Nc1cc(C)ccc1C`: > 50 µM (inactive).
For the molecule `O=C(c1ccco1)N1CCC2(CC1)CC1(CO2)Nc2ccccc2-n2cccc21` (stereo not given), the half-inhibitory concentration (IC50) was 20.6 µM.

The IC50 is the midpoint of a concentration-inhibition curve.
